Results taken from PMC5442318, “Hundreds of dual-stage antimalarial molecules discovered by a functional gametocyte screen” (Nature Communications, 2017).
Read-outs that look alike come from different tables or passages of the source.

Key:
[1] = tested on: P. falciparum stage V female gametocytes; experiment: P. falciparum female gametocyte activation assay (Pf FGAA), 24 h or 48 h preincubation, Pfs25 expression readout; format: cell-based, Plasmodium falciparum NF54; details: mean, read-out: Gametocytes mean Pf FGAA IC50
Procedure, shortened: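 Purified stage V gametocytes from P. falciparum NF54 gametocyte cultures were exposed to compounds for 24 h or 48 h at 37 °C under 3% O2/5% CO2, then activated by temperature drop plus xanthurenic acid. Activated females were stained with Cy3-anti-Pfs25 (0.5 μg ml^−1) for 24 h at 26 °C and counted by high-content imaging; pIC50 by nonlinear regression.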

[2] = tested on: P. falciparum stages IV–V gametocytes; experiment: Gametocytocidal ATP-depletion assay (gametocyte ATP bioluminescence); format: cell-based, Plasmodium falciparum
Procedure, shortened: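 Purified stage IV–V gametocytes (12,500/well) incubated with compound for 48 h at 37 °C under 3% O2/5% CO2. ATP measured by BacTiter-Glo luminescence as a viability surrogate; hits tested at 2 μM single concentration.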

HepG2 cells = experiment: HepG2 cytotoxicity assay; format: cell-based; details: mean
Procedure, shortened: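 Post-incubation CellTiter-Glo luminescence; 30 min RT equilibration, 10 min RT stabilization before reading.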

[3] = tested on: P. falciparum asexual blood stages; details: read-out: Pf Asexual blood stages XC50, cited from earlier work
[4] = TCAMS data, ref 1 (Gamo et al., 2010)
[5] = P. falciparum female gametocytes
[6] = TCAMS asexual blood stage data, ref 1 (Gamo, F. J. et al., Nature 465, 305-310, 2010)

| Compound | IC50 [1] | Gametocytes mean ATP inhibition at 2µM (%) [2] | HepG2 cells mean TOX50 (HepG2 cells) | IC50 [3, 4] | IC50 [1, 5] | Gametocytes mean ATP inhibition at 2µM [2] | HepG2 cells mean TOX50 (HepG2 cells; HepG2 cells) | IC50 [3, 6] |
| --- | --- | --- | --- | --- | --- | --- | --- | --- |
| CCCCOc1cc(OC)c2ccccc2c1CCNCCCCNCCc1c(OCCCC)cc(OC)c2ccccc12.CS(=O)(=O)O [TCMDC-137845] | 760 nM | 95.21% | 1.97 µM | 1050 nM |  |  |  |  |
| CNCCNCc1ccc(-c2ccc(-c3nc4cc(C(F)(F)F)ccc4[nH]3)s2)cc1.O=C(O)C(F)(F)F [TCMDC-132838] |  |  |  |  | 1280 nM | -8.87% | 6.10 µM | 600 nM |
| CC(C)N1CCN(C(CN2CCN(CCCOc3ccc(-c4ccccc4)cc3)CC2)c2ccc(F)cc2)CC1.Cl (centres unmarked) [TCMDC-135497] |  |  |  |  | 1420 nM | 6.50% | 2.29 µM | 680 nM |
| CCOc1ccccc1CCNC(C)Cc1ccc(C(=O)Nc2ccc(CC(C)NCCc3cccc(Cl)c3)cc2)cc1 (centres unmarked) [TCMDC-139805] | 1390 nM | 17.68% | 3.24 µM | 540 nM |  |  |  |  |
| COc1cc(CNCCCCCCNCc2cc(OC)c3ccccc3c2OC)c(OC)c2ccccc12.CS(=O)(=O)O [TCMDC-137502] | 1670 nM | 1.18% | 3.67 µM | 700 nM |  |  |  |  |
| CC(C)c1ccc(CN2CCC(CNC(=O)c3cc(-c4cccc(C(F)(F)F)c4)cs3)C2)cc1.O=C(O)C(F)(F)F (centres unmarked) [TCMDC-134435] |  |  |  |  | 1300 nM | -4.54% | 5.13 µM | 910 nM |
| Clc1ccc(Nc2nc3ccc(Cl)cc3nc2Nc2ccc(Cl)cc2)cc1 [TCMDC-137772] | 1910 nM | 27.62% | 7.86 µM | 130 nM |  |  |  |  |
| CCCCCCCCN1CCN(CCCCCCNc2c3ccccc3nc3ccccc23)CC1.Cl [TCMDC-138015] | 640 nM | 57.24% | 3.35 µM | 160 nM |  |  |  |  |
| O=C(O)C(F)(F)F.O=S(=O)(NCCN1CCCC1)c1ccc(-c2ccc(CNC3Cc4ccccc4C3)cc2)s1 [TCMDC-132234] |  |  |  |  | 2270 nM | 1.19% | 5.83 µM | 590 nM |
| Nc1cc2c(C3CCN(CC4CCN(C(=O)/C=C/c5ccc(Cl)c(Cl)c5)CC4)CC3)c[nH]c2cn1 [TCMDC-140133] | 1970 nM | -6.84% | 6.24 µM | 980 nM |  |  |  |  |
| COc1ccc(CCNCCCCCCNCCc2ccc(Cl)c3ccccc23)cc1OC.Cl [TCMDC-131270] |  |  |  |  | 580 nM | 67.75% | 2.12 µM | 580 nM |
| C=CCOc1ccc2ccccc2c1CNCCCCCCNCc1c(OCC=C)ccc2ccccc12.CS(=O)(=O)O [TCMDC-137340] | 700 nM | 58.99% | 1.93 µM | 860 nM |  |  |  |  |
| CC(Nc1cc(-c2ccccn2)nc(-c2ccccn2)n1)c1ccccc1 (centres unmarked) [TCMDC-125420] |  |  |  |  | 210 nM | 86.62% | 6.18 µM | 450 nM |
| CC(=O)N(Cc1ccc(CC(C)NCCc2cccc(Cl)c2)cc1)Cc1ccc(CC(C)NCCc2cccc(Cl)c2)cc1 (centres unmarked) [TCMDC-139678] | 810 nM | 14.97% | 2.85 µM | 780 nM |  |  |  |  |
| CC(C)(CN)c1nc(-c2ccc(Cl)c(O)c2)c(-c2ccncc2)[nH]1.Cl [TCMDC-140369] | 940 nM | -0.49% | 2.16 µM | 760 nM |  |  |  |  |
| Fc1ccc2[nH]c(-c3ccc(-c4ccc(CN5CCC(CCN6CCCCC6)CC5)cc4)cc3)nc2c1.O=C(O)C(F)(F)F [TCMDC-133924] |  |  |  |  | 1700 nM | 11.89% | 3.94 µM | 130 nM |
| COc1ccc(Nc2nccc(-c3ccc4ccnc(NCCCCN)c4c3)n2)cc1 [TCMDC-136642] | 1510 nM | 21.11% | 14.29 µM | 750 nM |  |  |  |  |
| Br.CC(C)(Cc1ccc(Cl)cc1)NCCCCCCNCCc1ccc(O)c(O)c1 [TCMDC-131277] |  |  |  |  | 9660 nM | 53.83% | 10.97 µM | 1200 nM |
| N=C(/N=C(/NCCCCCCN/C(=N/C(=N)NCc1ccc(Cl)c(Cl)c1)N1CCCCC1)N1CCCCC1)NCc1ccc(Cl)c(Cl)c1 [TCMDC-131816] |  |  |  |  | 2610 nM | 67.07% | 43.18 µM | 570 nM |
| CCN(CC)CCCn1c(N)c(-c2nc3ccccc3[nH]2)c2nc(C#N)c(C#N)nc21 [TCMDC-123680] |  |  |  |  | 740 nM | 86.44% | 4.27 µM | 270 nM |
| CC(C)c1ccc(CN2CCC(CNC(=O)c3cc(-c4cccc(Cl)c4)cs3)C2)cc1.O=C(O)C(F)(F)F (centres unmarked) [TCMDC-134438] |  |  |  |  | 600 nM | -9.36% | 6.53 µM | 750 nM |
| CN(C)CCN(C)Cc1ccc(-c2ccc3c(Nc4ccc(Oc5ccccn5)cc4)ccnc3c2)o1 [TCMDC-138426] | 2050 nM | 16.13% | 5.37 µM | 420 nM |  |  |  |  |
| CC(C)(C)c1ccc(CN2CCC(CNC(=O)c3cc(-c4cccc(F)c4)cs3)C2)cc1.O=C(O)C(F)(F)F (centres unmarked) [TCMDC-134444] |  |  |  |  | 1320 nM | 0.99% | 6.61 µM | 900 nM |
| COc1cc2nc(N3CCC(CNC(=O)c4ccc(-c5ccc(-c6noc(C)n6)cc5C)cc4)CC3)nc(N)c2cc1OC [TCMDC-138155] | 1680 nM | 5.13% | 7.62 µM | 220 nM |  |  |  |  |
| Cn1c(Nc2cc(C(C)(C)C)on2)nc2cc(Nc3ccnc(Nc4cccc(S(=O)(=O)N5CCOCC5)c4)n3)ccc21 [TCMDC-134098] |  |  |  |  | 1190 nM | 17.18% | 8.13 µM | 530 nM |
| Cc1cc(N)c2cc(NC(=O)c3cc(C(F)(F)F)cc(C(F)(F)F)c3)ccc2n1.Cl [TCMDC-139377] | 860 nM | 0.86% | 2.60 µM | 90 nM |  |  |  |  |
| COc1cc2ccccc2c(CNCCCCCCNCc2c(OC)c(OC)cc3ccccc23)c1OC.CS(=O)(=O)O [TCMDC-137795] | 670 nM | 13.93% | 4.62 µM | 1110 nM |  |  |  |  |
| FC(F)(F)c1ccc2[nH]c(-c3cccc(-c4cccc(CNCCN5CCNCC5)c4)c3)nc2c1.O=C(O)C(F)(F)F [TCMDC-132871] |  |  |  |  | 1220 nM | 0.88% | 6.61 µM | 940 nM |
| CCCCOc1ccc(CNCCCCCCNCc2ccc(OCCCC)c3ccccc23)c2ccccc12.CS(=O)(=O)O [TCMDC-137281] | 400 nM | 94.34% | 2.29 µM | 1130 nM |  |  |  |  |
